This is an account of results in ChEMBL document CHEMBL5725438, “Tetrazole derivatives and their use as potassium channel modulators” (2017).

The assay addresses Intermediate conductance calcium-activated potassium channel protein 4 (Homo sapiens, UniProt O15554). Briefly: Inhibition Assay: Human HEK293 cells over-expressing human IK are grown in culture medium (DMEM supplemented with 10% foetal bovine serum), in polystyrene culture flasks ([…]) in a humidified atmosphere of 5% CO2 in air, at 37° C. Cell confluence should be 80-90% on day of plating. Cells are rinsed with 4 mL of PBS (phosphate buffered saline) and incubated 2 min with 1 mL of Trypsin-EDTA. After addition of 25 mL of culture medium cells are re-suspended by trituration with a 25 mL pipette.The cells are seeded at a density of 3×10^6 cells/mL (25 μL/well) in black-walled, clear bottom, 384-well plates pre-treated with 0.01 g/L poly-D-lysin (20 μL/well for ≧30 min). Plated cells were allowed to proliferate for 24 h before loading with dye.BTC-AM ([…], Invitrogen) is added 25.5 μl DMSO. The BTC-AM stock solution (2 mM) is diluted to a final concentration of 2 μM in Cl+ free assay buffer (in mM: 140 Na+-gluconate, 2.5 K+-gluconate, 6 Ca2+-gluconate, 1 Mg2+ gluconate, 5 glucose, 10 HEPES, pH 7.3) containing 2 μM ouabain, 2 mM amaranth and 1 mM tartrazine.The culture medium is aspirated from the wells, and 25 μl of the BTC-AM loading solution are added to each well. The cells are incubated at 37° C. for 60 min.After the loading period, the Tl+-sensitive BTC fluorescence signal is measured over time using a FLIPR.

Chain of Intermediate conductance calcium-activated potassium channel protein 4 (O15554 whole entry): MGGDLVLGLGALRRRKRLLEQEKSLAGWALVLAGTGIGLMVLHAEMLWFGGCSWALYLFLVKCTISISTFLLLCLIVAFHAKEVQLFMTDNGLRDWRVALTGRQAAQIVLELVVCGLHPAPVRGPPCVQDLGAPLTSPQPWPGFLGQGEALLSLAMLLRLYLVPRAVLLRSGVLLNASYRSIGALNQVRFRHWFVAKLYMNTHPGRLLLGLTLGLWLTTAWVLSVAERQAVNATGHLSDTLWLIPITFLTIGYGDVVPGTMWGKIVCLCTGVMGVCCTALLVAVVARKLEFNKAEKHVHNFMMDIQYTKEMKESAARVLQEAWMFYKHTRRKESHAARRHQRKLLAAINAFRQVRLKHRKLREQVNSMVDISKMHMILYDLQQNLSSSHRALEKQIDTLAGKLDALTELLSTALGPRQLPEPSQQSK

As for `COCCNc1ccccc1-c1ccccc1-c1nnnn1-c1ccccc1F`, the IC50 (commonly the concentration at which inhibition is half-maximal) is 0.68 µM.
